Assay [1] addresses T1, A1 receptor (Oryctolagus cuniculus, UniProt P34970).
T1 construct: a rabbit ischemia model wherein 2-chloro-N6-cyclopentyladenosine (CCPA) and R-PIA were administered prior to ischemia; host or cells: rabbit in vivo
T1 sequence (P34970 1-328): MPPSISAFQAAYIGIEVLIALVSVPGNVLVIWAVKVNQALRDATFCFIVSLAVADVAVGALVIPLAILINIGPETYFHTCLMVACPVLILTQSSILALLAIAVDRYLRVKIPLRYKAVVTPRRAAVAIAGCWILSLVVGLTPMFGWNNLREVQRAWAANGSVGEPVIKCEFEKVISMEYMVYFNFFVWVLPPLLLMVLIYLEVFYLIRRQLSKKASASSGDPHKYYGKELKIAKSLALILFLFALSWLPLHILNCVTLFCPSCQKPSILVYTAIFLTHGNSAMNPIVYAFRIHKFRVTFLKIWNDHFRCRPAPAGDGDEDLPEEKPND
The following applies: administered prior to ischemia; cited from earlier work.

Assay [2] has as its target T2, A1 adenosine receptor (Cavia porcellus, UniProt P47745).
T2 construct: The hearts were quickly removed and rinsed in ice-cold Krebs-Henseleit solution; from tissue; host or cells: guinea pig isolated perfused heart
T2 sequence (P47745 1-326): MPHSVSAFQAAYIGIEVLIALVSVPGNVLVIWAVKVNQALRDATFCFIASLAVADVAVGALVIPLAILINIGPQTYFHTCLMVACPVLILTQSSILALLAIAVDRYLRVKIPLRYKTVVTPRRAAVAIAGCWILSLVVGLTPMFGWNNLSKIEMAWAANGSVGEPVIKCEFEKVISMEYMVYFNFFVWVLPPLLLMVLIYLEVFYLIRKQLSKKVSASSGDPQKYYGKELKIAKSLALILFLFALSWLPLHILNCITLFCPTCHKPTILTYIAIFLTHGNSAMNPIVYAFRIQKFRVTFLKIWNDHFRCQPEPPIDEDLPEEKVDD
Nature of the assay: Guinea pig isolated perfused heart: S-H interval, heart rate, atrial MAP. The following applies: for effect on atrial monophasic action potential: FIG. 1 panel B; for effect on AV nodal conduction time (S-H interval) / second-degree AV block: FIG. 1 panel C; for effect on heart rate (chronotropic): spontaneously beating hearts, FIG. 1 panel A. The protocol: Guinea pigs of either sex weighing 250-300 g were anesthetized with methoxyflurane and killed by cervical dislocation. The hearts were quickly removed and rinsed in ice-cold Krebs-Henseleit solution. The aorta was cannulated and the heart retrogradely perfused at a constant flow of 10 ml min^−1 with modified Krebs-Henseleit solution containing (mM): NaCL 117.9, KCl 4.8, CaCl2 2.5, MgSO4 1.18, KH2PO4 1.2, Na2EDTA 0.5, ascorbic acid 0.14, glucose 5.5, pyruvic acid (sodium salt) 2.0, and NaHCO3 25. The K—H solution was oxygenated with 95% oxygen and 5% CO2, pH 7.4, and temperature maintained at 36° C.
Hearts were electrically paced at a cycle length of 290-300 ms (unless otherwise indicated) using a bipolar electrode placed on the right atrium or ventricle. The stimulator, an interval generator (Model 1830, WPI, Sarasota, Fla., U.S.A.) delivered stimuli through a stimulus isolation unit (Model 1880, WPI) as square wave pulses of 3 ms in duration and at least twice the threshold intensity. The stimulus-to-His bundle (S—H) interval was used as index of AV nodal conduction time and was measured on-line during constant atrial pacing from microcomputer with a DT-208 1A interface board (Axon Instruments, Burlingame, Calif., U.S.A.) In experiments to study the chronotropic effect (effect on heart rate) of A1 AdoR agonists, the hearts were allowed to beat spontaneously. An atrial electrogram was used to record the electrical activity of the atria and to measure the heart rate.
Monophasic action potentials (MAP) were recorded using a pressure contact silver-silver chloride electrode (Langendorf Probe, EP Technologies, Inc., Sunnyvale, Calif., U.S.A.) placed on the surface of the left atrium. […] Signals were considered adequate if they were stable for at least 5 min and the amplitudes of the MAPs exceeded 10 mV. The data were digitized at 2 kHz by a DT-2801A digitizing board (Data Translation, Marlboro, Mass., U.S.A.) and stored using the Snapshot data acquisition program (Snapshot Storage Scope, HEM Data Corp., Southfield, Mich., U.S.A.) for later analysis. The duration of the atrial monophasic action potential was measured at 90% repolarization (MAPD90), using the Snapshot program. After completion of dissection and instrumentation, the hearts were allowed to equilibrate for 30 min before the experiments were begun. Whenever the baseline and post-intervention (washout) values differed by more than 15% the data were discarded. Approximately 60-70% of the experiments conformed with this criteria.

Assay [3] has as its target T3, A1 adenosine receptor (Mesocricetus auratus, UniProt A0A1U8BVR4).
T3 construct: endogenous in cells; host or cells: DDT1 (DDT1 MF-2) hamster vas deferens smooth muscle cells
T3 sequence (A0A1U8BVR4 1-326): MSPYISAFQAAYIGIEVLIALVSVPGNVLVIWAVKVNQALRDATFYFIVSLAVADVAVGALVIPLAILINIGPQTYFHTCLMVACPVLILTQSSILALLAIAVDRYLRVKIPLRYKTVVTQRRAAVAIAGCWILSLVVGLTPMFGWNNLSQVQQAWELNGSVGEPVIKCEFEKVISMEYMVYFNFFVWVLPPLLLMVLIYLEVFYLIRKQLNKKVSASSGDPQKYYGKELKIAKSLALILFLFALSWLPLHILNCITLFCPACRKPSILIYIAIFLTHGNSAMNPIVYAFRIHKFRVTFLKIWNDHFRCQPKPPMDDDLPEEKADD
Nature of the assay: cAMP assay (SPA) in DDT1 cells, forskolin-induced cAMP. In kind it is cell-based, hamster. On the procedure: A scintillation proximity assay (SPA) using rabbit antibodies directed at cAMP using an added tracer of adenosine 3′,5′-cyclic phosphoric acid 2′-O-succinyl-3-[^125I]iodotyrosine methyl ester and fluoromicrospheres containing anti-rabbit specific antibodies as described by Amersham Pharmacia Biotech (Biotrak cellular communication assays). Briefly, DDT1 cells were cultured in clear bottomed 96 well microtiter plates with opaque wells at concentrations between 10^4 to 10^6 cells per well in 40 μl of HBSS at 37° C. (5% CO2 and 95% humidity). The partial or full A1 agonists (5 μl) of this invention were incubated at various concentrations with the DDT1 cells in the presence of rolipram (50 μM), and 5 μM forskolin for 10 min at 37° C. The cells were immediately lysed by treatment 5 μl of 10% dodecyltrirnethylammonium bromide followed by shaking using rnicroplate shaker. After incubation of the plate for 5 minutes, an imnuunoreagent solution (150 μl containing equal volumes of tracer, antiserum, and SPA fluorospheres) was added to each well followed by sealing the plate. After 15-20 h at 23° C., the amount of bound [^125] cAM to the fluoromicrospheres was determined by counting in a microtitre plate scintillation counter for 2 minutes. Comparison of counts with standard curves generated for cAMP using a similar protocol afforded the cAMP present after cell lysis.
(In general: Cyclic AMP is a second messenger, typically raised through Gs and lowered through Gi signalling.)

Assay [4] relates to white adipocytes. The following applies: cited from earlier work.
Assay [5] has as its target A1 receptor (Cavia porcellus, UniProt P47745). The following applies: chronic administration for 7 days; cited from earlier work.
The conditions of assay [6]: seizures induced by DMCM; cited from earlier work.

Entries after “also recorded” stand apart in the source; their conditions may differ.

Regarding `OC[C@H]1O[C@@H](n2cnc3c(NC4CCCC4)nc(Cl)nc32)[C@H](O)[C@@H]1O` [CCPA, 2-chloro-N6-cyclopentyladenosine], in assay [1], the “protection with respect to infarct size” value is “providing protection with respect to infarct size”. Further, in assay [2], the “effect on atrial monophasic action potential” value is reported as “shortened the monophasic atrial action potential”, the “effect on AV nodal conduction time (S-H interval)” value is “prolonged the S—H interval”, the “second-degree AV block” value is on record as “caused second-degree AV block” and the “effect on heart rate (chronotropic)” value is “slowed heart rate”.
Regarding `OC[C@H]1O[C@@H](n2cnc3c(NC4CCCC4)ncnc32)[C@H](O)[C@@H]1O` [CPA, N-6-cyclopentyladenosine], the “second degree AV block” value in assay [2] (30 nM CPA, four hearts) is “Second degree AV block occurred in all hearts”. For the same molecule, in assay [2], the “effect on atrial monophasic action potential” value is “shortened the monophasic atrial action potential”, the “effect on AV nodal conduction time (S-H interval)” value is “prolonged the S—H interval”, the “second-degree AV block” value is on record as “caused second-degree AV block” and the “effect on heart rate (chronotropic)” value is on record as “slowed heart rate”. The “effect on forskolin induced cAMP generation” value in assay [3] (DDT1 cells) is listed as “diminished the amount of forskolin induced cAMP generation back to basal levels”. This molecule displayed a cAMP in assay [3] (normalized to full agonist CPA, 5 μM forskolin, 50 μM rolipram) of 100%.
As for `O=c1[nH]c(=O)c2[nH]c(C3CCCC3)nc2[nH]1` [CPX, 8-cyclopentylxanthine], the “antagonism of S-H interval prolongation caused by Compound 6” value in assay [2] (CPX 50 nM, cycle length 300 msec, FIG. 2) is “significant (P<0.05); also recorded: antagonizes the prolongation of S—H interval caused by compound 6”.
`C[C@H](Cc1ccccc1)Nc1ncnc2c1ncn2[C@@H]1O[C@H](CO)[C@@H](O)[C@H]1O` [R-PIA, R-N6-phenylisopropyladenosine]: the leptin release entry in assay [4] was “increase the leptin released from white adipocytes”. Further, the “desensitization of A1 receptor (dromotropic response)” value in assay [5] is recorded as “led to a desensitization”.
In the case of `Cc1ccccc1CNc1ncnc2c1ncn2[C@@H]1O[C@H](CO)[C@@H](O)[C@H]1O` [metrifudil], the anticonvulsant activity entry in assay [6] is reported as “potent anticonvulsant”.

Source of the values: patent US20020037872A1, “N6 heterocyclic 5' modified adenosine derivatives” (CV Therapeutics, Inc., priority 1999, published 2002).
